The source of these data is patent publication US11702404B2, “GLP-1R modulating compounds” (priority 2019, dated 2023).

Read-outs that look alike come from different tables or passages of the source.

Data set [1] in a line: Microsomal stability, human liver microsomes (predicted hepatic clearance). The following applies: predicted from in vitro microsomal stability data.
In data set [2] the target is GLP-1R (Homo sapiens, UniProt P43220). Nature of the data set: GLP-1R activation: cAMP increase in CHO cells stably expressing GLP-1R. The following applies: read-out: EC50. It is filed as cell-based.
Where [3] appears, read: cAMP increase, CHO cells stably expressing GLP-1R, 10 point dose response, 30 minutes incubation.

Chain of GLP-1R (P43220 24-463): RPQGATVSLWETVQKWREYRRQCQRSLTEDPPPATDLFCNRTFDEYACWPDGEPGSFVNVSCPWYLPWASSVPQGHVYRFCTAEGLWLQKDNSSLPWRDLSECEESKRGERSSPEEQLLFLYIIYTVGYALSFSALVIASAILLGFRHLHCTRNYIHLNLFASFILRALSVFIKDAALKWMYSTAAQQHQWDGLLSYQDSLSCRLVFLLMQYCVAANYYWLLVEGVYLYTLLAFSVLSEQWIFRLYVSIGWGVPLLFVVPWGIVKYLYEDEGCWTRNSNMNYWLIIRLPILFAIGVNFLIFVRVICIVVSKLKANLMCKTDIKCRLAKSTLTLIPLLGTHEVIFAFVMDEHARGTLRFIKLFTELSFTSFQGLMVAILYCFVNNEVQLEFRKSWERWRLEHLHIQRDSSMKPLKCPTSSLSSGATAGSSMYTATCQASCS

For the compound `COCCn1c(Cc2cc(F)c(-c3ccc(OC)c(OCc4ccc(C#N)cc4F)n3)cc2F)nc2ccc(C(=O)O)cc21` [Example 541, 2-(4-(6-((4-cyano-2-fluorobenzyl)oxy)-5-methoxypyridin-2-yl)-2,5-difluorobenzyl)-1-(2-methoxyethyl)-1H-benzo[d]imidazole-6-carboxylic acid], the “Predicted Hepatic Clearance (Pred. Cl.)” value in data set [1] is 3.67 mL/min/kg. For the same compound, in data set [2] (setting [3]), the EC50 (usually the midpoint of the concentration-response curve) was 28.3 nM.
In the same order, the values of `COCCn1c(Cc2cc(F)c(-c3cccc(OCc4cccnc4OC(F)F)n3)cc2F)nc2ccc(C(=O)O)cc21` [Example 542, 2-(4-(6-((2-(difluoromethoxy)pyridin-3-yl)methoxy)pyridin-2-yl)-2,5-difluorobenzyl)-1-(2-methoxyethyl)-1H-benzo[d]imidazole-6-carboxylic acid] are 20 mL/min/kg and 8.6 nM.
In the same order, the values of `[2H]C([2H])(Oc1cccc(-c2cc(F)c(Cc3nc4ccc(C(=O)O)cc4n3CCOC)cc2F)n1)c1ccc(C#N)cc1F` [Example 543, 2-(4-(6-((4-cyano-2-fluorophenyl)methoxy-d2)pyridin-2-yl)-2,5-difluorobenzyl)-1-(2-methoxyethyl)-1H-benzo[d]imidazole-6-carboxylic acid] are 4.67 mL/min/kg and 1.51 nM.
With `COCCn1c(Cc2cc(F)c(-c3cccc(OCc4ccc(C(F)F)cc4F)n3)cc2F)nc2ccc(C(=O)O)cc21` [Example 544, 2-(4-(6-((4-(difluoromethyl)-2-fluorobenzyl)oxy)pyridin-2-yl)-2,5-difluorobenzyl)-1-(2-methoxyethyl)-1H-benzo[d]imidazole-6-carboxylic acid], the “Predicted Hepatic Clearance (Pred. Cl.)” value in data set [1] was 3.17 mL/min/kg. Moreover, the EC50 in data set [2] (setting [3]) was 0.96 nM.
The like results for `N#Cc1ccc(COc2cccc(-c3cc(F)c(Cc4nc5ccc(C(=O)O)cc5n4[C@H]4CCCOC4)cc3F)n2)c(F)c1` [Example 545, 2-(4-(6-((4-cyano-2-fluorobenzyl)oxy)pyridin-2-yl)-2,5-difluorobenzyl)-1-(tetrahydro-2H-pyran-3-yl)-1H-benzo[d]imidazole-carboxylic acid] were, in that order, 6.67 mL/min/kg and 6.9 nM.
In the same order, the values of `N#Cc1ccc(COc2cccc(-c3cc(F)c(Cc4nc5ccc(C(=O)O)cc5n4CC4CCOCC4)cc3F)n2)c(F)c1` [Example 546, 2-(4-(6-((4-cyano-2-fluorobenzyl)oxy)pyridin-2-yl)-2,5-difluorobenzyl)-1-((tetrahydro-2H-pyran-4-yl)methyl)-1H-benzo[d]imidazole-carboxylic acid] are 8.83 mL/min/kg and 0.33 nM.
The like results for `N#Cc1ccc(COc2cccc(-c3cc(F)c(Cc4nc5ccc(C(=O)O)cc5n4C4CCOCC4)cc3F)n2)c(F)c1` [Example 547, 2-(4-(6-((4-cyano-2-fluorobenzyl)oxy)pyridin-2-yl)-2,5-difluorobenzyl)-1-(tetrahydro-2H-pyran-4-yl)-1H-benzo[d]imidazole-carboxylic acid] were, in that order, 7.33 mL/min/kg and 3.43 nM.
As for `N#Cc1ccc(COc2cccc(-c3ccc(Cc4nc5cc(C(=O)O)ccc5n4CC4(CF)CC4)c(F)c3)n2)c(F)c1` [Example 552, 2-(4-(6-((4-Cyano-2-fluorobenzyl)oxy)pyridin-2-yl)-2-fluorobenzyl)-1-((1-(fluoromethyl)cyclopropyl)methyl)-1H-benzo[d]imidazole-5-carboxylic acid], the “Predicted Hepatic Clearance (Pred. Cl.)” value in data set [1] was under 1.83 mL/min/kg. In addition, the EC50 in data set [2] (setting [3]) was found to be 18.1 nM.
The like results for `COCCn1c(Cc2ccc(-c3cccc(OCc4ccc(C#N)cc4F)n3)cc2F)nc2cc(C(=O)O)ccc21` [Example 553, 2-(4-(6-((4-cyano-2-fluorobenzyl)oxy)pyridin-2-yl)-2-fluorobenzyl)-1-(2-methoxyethyl)-1H-benzo[d]imidazole-5-carboxylic acid] were, in that order, 4.17 mL/min/kg and 19.8 nM.
In the same order, the values of `COCCn1c(Cc2cc(F)c(-c3cccc(OCc4ccc(C(N)=O)cc4F)n3)cc2F)nc2ccc(C(=O)O)cc21` [Example 554, 2-(4-(6-((4-carbamoyl-2-fluorobenzyl)oxy)pyridin-2-yl)-2,5-difluorobenzyl)-1-(2-methoxyethyl)-1H-benzo[d]imidazole-6-carboxylic acid] are 4.17 mL/min/kg and 48.2 nM.
Turning to `COCCn1c(Cc2ccc(-c3cccc(OCc4ccc(C#N)cc4F)n3)cc2F)nc2ccc(P(=O)(O)O)cc21` [Example 555, (2-(4-(6-((4-cyano-2-fluorobenzyl)oxy)pyridin-2-yl)-2-fluorobenzyl)-1-(2-methoxyethyl)-1H-benzo[d]imidazol-6-yl)phosphonic acid], the “Predicted Hepatic Clearance (Pred. Cl.)” value in data set [1] was 1.83 mL/min/kg. The EC50 in data set [2] (setting [3]) came out at 57.9 nM.
The like results for `COCCn1c(Cc2cc(F)c(-c3cccc(OCc4ccc(C(F)(F)F)cc4F)n3)cc2F)nc2ccc(C(=O)O)cc21` [Example 557, 2-(2,5-difluoro-4-(6-((2-fluoro-4-(trifluoromethyl)benzyl)oxy)pyridin-2-yl)benzyl)-1-(2-methoxyethyl)-1H-benzo[d]imidazole-6-carboxylic acid] were, in that order, 2.17 mL/min/kg and 0.47 nM.
The like results for `COCCn1c(Cc2ccc(-c3ccnc(OCc4ccc(C#N)cc4F)n3)c(F)c2)nc2c(F)cc(C(=O)O)cc21` [Example 558, 2-(4-(2-((4-cyano-2-fluorobenzyl)oxy)pyrimidin-4-yl)-3-fluorobenzyl)-4-fluoro-1-(2-methoxyethyl)-1H-benzo[d]imidazole-6-carboxylic acid] were, in that order, 4 mL/min/kg and 22.4 nM.
`COC[C@H](C)n1c(Cc2cc(F)c(-c3cccc(OCc4ccc(C#N)cc4F)n3)cc2F)nc2ccc(C(=O)O)cc21` [Example 559, (S)-2-(4-(6-((4-cyano-2-fluorobenzyl)oxy)pyridin-2-yl)-2,5-difluorobenzyl)-1-(1-methoxypropan-2-yl)-1H-benzo[d]imidazole-6-carboxylic acid]: the “Predicted Hepatic Clearance (Pred. Cl.)” value in data set [1] was 6.83 mL/min/kg. Moreover, in data set [2] (setting [3]), the EC50 is 2.62 nM.
In the same order, the values of `COC[C@@H](C)n1c(Cc2cc(F)c(-c3cccc(OCc4ccc(C#N)cc4F)n3)cc2F)nc2ccc(C(=O)O)cc21` [Example 560, (R)-2-(4-(6-((4-cyano-2-fluorobenzyl)oxy)pyridin-2-yl)-2,5-difluorobenzyl)-1-(1-methoxypropan-2-yl)-1H-benzo[d]imidazole-6-carboxylic acid] are 5.83 mL/min/kg and 1.92 nM.
For the compound `N#Cc1ccc(COc2cccc(-c3cc(F)c(Cc4nc5ccc(C(=O)O)cc5n4CCN4CCOCC4)cc3F)n2)c(F)c1` [Example 561, 2-(4-(6-((4-cyano-2-fluorobenzyl)oxy)pyridin-2-yl)-2,5-difluorobenzyl)-1-(2-morpholinoethyl)-1H-benzo[d]imidazole-6-carboxylic acid], in data set [1], the “Predicted Hepatic Clearance (Pred. Cl.)” value was 9.5 mL/min/kg. Also, the EC50 in data set [2] worked out at 24.1 nM.
For `COCCn1c(Cc2cc(F)c(-c3cccc(OCc4ccc(Cl)cc4F)n3)cc2F)nc2ccc(C(=O)O)cc21` [Example 563, 2-(4-(6-((4-chloro-2-fluorobenzyl)oxy)pyridin-2-yl)-2,5-difluorobenzyl)-1-(2-methoxyethyl)-1H-benzo[d]imidazole-6-carboxylic acid], in data set [1], the “Predicted Hepatic Clearance (Pred. Cl.)” value is 3.67 mL/min/kg. For the same compound, the EC50 in data set [2] (setting [3]) was 1 nM.
The like results for `COCCn1c(Cc2cc(F)c(-c3cccc(OCc4cc(F)c(Cl)cc4F)n3)cc2F)nc2ccc(C(=O)O)cc21` [Example 564, 2-(4-(6-((4-chloro-2,5-difluorobenzyl)oxy)pyridin-2-yl)-2,5-difluorobenzyl)-1-(2-methoxyethyl)-1H-benzo[d]imidazole-6-carboxylic acid] were, in that order, 3.42 mL/min/kg and 1.96 nM.
For `COCCn1c(Cc2cc(F)c(-c3cccc(OCc4cc(F)c(C#N)cc4F)n3)cc2F)nc2ccc(C(=O)O)cc21` [Example 565, 2-(4-(6-((4-cyano-2,5-difluorobenzyl)oxy)pyridin-2-yl)-2,5-difluorobenzyl)-1-(2-methoxyethyl)-1H-benzo[d]imidazole-6-carboxylic acid], in data set [1], the “Predicted Hepatic Clearance (Pred. Cl.)” value was 6 mL/min/kg. The EC50 in data set [2] (setting [3]) was 4.91 nM.
The like results for `CO[C@H]1C[C@H](n2c(Cc3cc(F)c(-c4cccc(OCc5ccc(C#N)cc5F)n4)cc3F)nc3ccc(C(=O)O)cc32)C1` [Example 567, 2-(4-(6-((4-cyano-2-fluorobenzyl)oxy)pyridin-2-yl)-2,5-difluorobenzyl)-1-((1r,3r)-3-methoxycyclobutyl)-1H-benzo[d]imidazole-6-carboxylic acid] were, in that order, 7.67 mL/min/kg and 1130 nM.
In the same order, the values of `N#Cc1ccc(COc2cccc(-c3cc(F)c(Cc4nc5ccc(C(=O)O)cc5n4Cc4cnns4)cc3F)n2)c(F)c1` [Example 569, 1-((1,2,3-thiadiazol-5-yl)methyl)-2-(4-(6-((4-cyano-2-fluorobenzyl)oxy)pyridin-2-yl)-2,5-difluorobenzyl)-1H-benzo[d]imidazole-6-carboxylic acid] are 17 mL/min/kg and 10.4 nM.
The like results for `N#Cc1ccc(COc2cccc(-c3cc(F)c(Cc4nc5ccc(C(=O)O)cc5n4CC45CC(CO4)C5)cc3F)n2)c(F)c1` [Example 574] were, in that order, 1.92 mL/min/kg and 0.63 nM.
Turning to `N#Cc1ccc(COc2cccc(-c3cc(F)c(Cc4nc5ccc(C(=O)O)cc5n4CC45CC(C#N)(CO4)C5)cc3F)n2)c(F)c1` [Example 575, 2-(4-(6-((4-cyano-2-fluorobenzyl)oxy)pyridin-2-yl)-2,5-difluorobenzyl)-1-((4-cyano-2-oxabicyclo[2.1.1]hexan-1-yl)methyl)-1H-benzo[d]imidazole-6-carboxylic acid], the “Predicted Hepatic Clearance (Pred. Cl.)” value in data set [1] is 8.67 mL/min/kg. In data set [2] (setting [3]), the EC50 was determined as 37.2 nM.
